According to ChEMBL document CHEMBL1201862, “PubChem BioAssay data set” (2004):
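48-hour exposure; five concentrations; linearly interpolated endpoints. GI50 = concentration required for 50% inhibition of growth.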 Calls of active or inactive are those of the source. No stated cut-off is given here; in the data, active = GI50 up to about 1.1 µM and inactive = higher.

Experiments:
Test in all cases: DTP human tumour cell line panel, 48 h
[1] = system: COLO 205
[2] = system: DU-145
[3] = system: HOP-62
[4] = system: HOP-92
[5] = system: K562
[6] = system: KM12
[7] = system: M14
[8] = system: MDA-MB-435
[9] = system: Malme-3M
[10] = system: OVCAR-4
[11] = system: OVCAR-5
[12] = system: OVCAR-8
[13] = system: RXF 393
[14] = system: SF-295
[15] = system: SK-MEL-5
[16] = system: SK-OV-3
[17] = system: SNB-19
[18] = system: T47D
[19] = system: A498

SMILES	GI50 [1]	GI50 [2]	GI50 [3]	GI50 [4]	GI50 [5]	GI50 [6]	GI50 [7]	GI50 [8]	GI50 [9]	GI50 [10]	GI50 [11]	GI50 [12]	GI50 [13]	GI50 [14]	GI50 [15]	GI50 [16]	GI50 [17]	GI50 [18]	GI50 [19]
COc1cc(C[C@H]2C(=O)OC[C@@H]2Cc2ccc(OC)c(OC)c2)cc(OC)c1	89.3 µM (inactive)	> 100 µM (inactive)	> 100 µM (inactive)	92.9 µM (inactive)	31.5 µM (inactive)	51.6 µM (inactive)	93.8 µM (inactive)	55.7 µM (inactive)	55.6 µM (inactive)	29.7 µM (inactive)	> 100 µM (inactive)	98.4 µM (inactive)	> 100 µM (inactive)	88.1 µM (inactive)	16.8 µM (inactive)	> 100 µM (inactive)	> 100 µM (inactive)	35.2 µM (inactive)	
Cc1ccc(/C=N/Nc2nc3ccccc3s2)s1	> 100 µM (inactive)	> 100 µM (inactive)	26.2 µM (inactive)	> 100 µM (inactive)	31.5 µM (inactive)	49.1 µM (inactive)	> 100 µM (inactive)	> 100 µM (inactive)	> 100 µM (inactive)	34.4 µM (inactive)	> 100 µM (inactive)	> 100 µM (inactive)	82.6 µM (inactive)	40.9 µM (inactive)	38.9 µM (inactive)	58.7 µM (inactive)	51.9 µM (inactive)	4.05 µM (inactive)	
CC1(C)CC(C#Cc2ccccc2)CC(C)(C)N1O	20.6 µM (inactive)	16.1 µM (inactive)	16.4 µM (inactive)	15.2 µM (inactive)	22.8 µM (inactive)	17.3 µM (inactive)	19.1 µM (inactive)	21.6 µM (inactive)	16.8 µM (inactive)	43.4 µM (inactive)	22.1 µM (inactive)	20.7 µM (inactive)	19.5 µM (inactive)	15.6 µM (inactive)	16.1 µM (inactive)	27.1 µM (inactive)	30.5 µM (inactive)	16 µM (inactive)	
CCOC(=O)C1C2CCC1CC(=NNc1ccc([N+](=O)[O-])cc1[N+](=O)[O-])C2 (stereo unspecified)	> 50 µM (inactive)	> 50 µM (inactive)	> 50 µM (inactive)	15.8 µM (inactive)	29.2 µM (inactive)	48.9 µM (inactive)	> 50 µM (inactive)	> 50 µM (inactive)	> 50 µM (inactive)	> 50 µM (inactive)	> 50 µM (inactive)	> 50 µM (inactive)	> 50 µM (inactive)	8.99 µM (inactive)	46.2 µM (inactive)	> 50 µM (inactive)	> 50 µM (inactive)		
O=C(CN1CCN(c2ccccc2)CC1)c1ccc2[nH]c(=O)oc2c1	> 100 µM (inactive)	> 100 µM (inactive)	> 100 µM (inactive)		> 100 µM (inactive)	> 100 µM (inactive)	> 100 µM (inactive)	> 100 µM (inactive)	> 100 µM (inactive)		> 100 µM (inactive)	> 100 µM (inactive)	> 100 µM (inactive)	> 100 µM (inactive)		> 100 µM (inactive)			> 100 µM (inactive)
O=c1cc(NCc2ccncc2)[nH]c(=O)[nH]1	> 100 µM (inactive)		> 100 µM (inactive)	> 100 µM (inactive)	> 100 µM (inactive)	> 100 µM (inactive)	> 100 µM (inactive)	> 100 µM (inactive)	> 100 µM (inactive)	> 100 µM (inactive)	> 100 µM (inactive)	> 100 µM (inactive)	> 100 µM (inactive)	> 100 µM (inactive)	> 100 µM (inactive)	> 100 µM (inactive)	> 100 µM (inactive)	> 100 µM (inactive)	> 100 µM (inactive)
Cc1c(S(=O)(=O)/N=C(\NN)Nc2ccc(Cl)cc2)sc2ccc(Cl)cc12	16.3 µM (inactive)	16.9 µM (inactive)	18.7 µM (inactive)	15.1 µM (inactive)	24 µM (inactive)	15.3 µM (inactive)	20.5 µM (inactive)		22.3 µM (inactive)	15.5 µM (inactive)	14.4 µM (inactive)	16.8 µM (inactive)	11.1 µM (inactive)	17.9 µM (inactive)	17.1 µM (inactive)	19.7 µM (inactive)	23.3 µM (inactive)	10.2 µM (inactive)	15.8 µM (inactive)
O=C1NC(N2CCCC(CO)C2)=N/C1=C\c1ccc(O)cc1 (stereo unspecified)	> 100 µM (inactive)	> 100 µM (inactive)	> 100 µM (inactive)	> 100 µM (inactive)	> 100 µM (inactive)	> 100 µM (inactive)	> 100 µM (inactive)	> 100 µM (inactive)	> 100 µM (inactive)	> 100 µM (inactive)	> 100 µM (inactive)	> 100 µM (inactive)	> 100 µM (inactive)	> 100 µM (inactive)	> 100 µM (inactive)	> 100 µM (inactive)	> 100 µM (inactive)	42 µM (inactive)	
CCC1CCC2c3c([nH]c4ccccc34)C3C(=O)N(c4ccc(OC)cc4)C(=O)C3C2C1 (stereo unspecified)	74.1 µM (inactive)	> 100 µM (inactive)	54.6 µM (inactive)		22 µM (inactive)	93.5 µM (inactive)	63 µM (inactive)	55.5 µM (inactive)		14.9 µM (inactive)		27.1 µM (inactive)	> 100 µM (inactive)	26.8 µM (inactive)	> 100 µM (inactive)	36.4 µM (inactive)	28.3 µM (inactive)	16.8 µM (inactive)	
O=C(c1c(F)c(F)c(F)c(F)c1F)n1c(=S)n(C(=O)c2c(F)c(F)c(F)c(F)c2F)c2ccccc21	49.9 µM (inactive)	80.5 µM (inactive)	> 100 µM (inactive)	> 100 µM (inactive)	22.2 µM (inactive)	> 100 µM (inactive)	> 100 µM (inactive)	> 10 µM (inactive)		95.5 µM (inactive)	> 100 µM (inactive)	> 100 µM (inactive)		> 100 µM (inactive)	> 100 µM (inactive)	> 100 µM (inactive)	> 100 µM (inactive)	82.4 µM (inactive)	
NCCSc1nc2ccccc2c(=O)n1-c1ccccc1	> 100 µM (inactive)		61.7 µM (inactive)	10.3 µM (inactive)	39.9 µM (inactive)	41.7 µM (inactive)	53.8 µM (inactive)	23.9 µM (inactive)	30.2 µM (inactive)	52.8 µM (inactive)	> 100 µM (inactive)	56.6 µM (inactive)		28.2 µM (inactive)	74.3 µM (inactive)	> 100 µM (inactive)	0.236 µM (active)	32.6 µM (inactive)	26.5 µM (inactive)
N#Cc1c(N)c(-c2ccc(Cl)cc2)c(F)c2ccccc12	> 100 µM (inactive)		> 100 µM (inactive)	3.98 µM (inactive)	> 100 µM (inactive)	> 100 µM (inactive)	> 100 µM (inactive)	> 100 µM (inactive)	> 100 µM (inactive)	> 100 µM (inactive)	> 100 µM (inactive)	> 100 µM (inactive)	18.8 µM (inactive)	> 100 µM (inactive)	> 100 µM (inactive)	> 100 µM (inactive)	> 100 µM (inactive)	> 100 µM (inactive)	> 100 µM (inactive)
COc1ccc2c(c1)N=C(N)n1c(nc3ccccc31)S2	5.27 µM (inactive)	74.8 µM (inactive)	57.8 µM (inactive)	11.7 µM (inactive)	10.9 µM (inactive)	15.5 µM (inactive)	4.01 µM (inactive)		68.9 µM (inactive)	4.66 µM (inactive)	6.34 µM (inactive)		19.5 µM (inactive)	38.5 µM (inactive)	7.29 µM (inactive)	30.5 µM (inactive)	82 µM (inactive)	15.2 µM (inactive)	32.1 µM (inactive)
OC1CN=C2c3ccccc3C(O)(c3ccc(Cl)cc3)N2C1 (stereo unspecified)	19.5 µM (inactive)	> 100 µM (inactive)	55.5 µM (inactive)	22 µM (inactive)	35.6 µM (inactive)	52.4 µM (inactive)	14.8 µM (inactive)	65.8 µM (inactive)	31.7 µM (inactive)	> 100 µM (inactive)	27 µM (inactive)	77.4 µM (inactive)	50 µM (inactive)		> 10 µM (inactive)	69.5 µM (inactive)	60 µM (inactive)	> 100 µM (inactive)	
C=CCOn1c(C=C)nc2ccc(C)cc21	13.6 µM (inactive)		17.9 µM (inactive)	34.9 µM (inactive)	20.6 µM (inactive)	17.3 µM (inactive)	16.5 µM (inactive)	13.6 µM (inactive)	18 µM (inactive)	29.3 µM (inactive)	18.4 µM (inactive)	23.6 µM (inactive)		25.6 µM (inactive)	17.5 µM (inactive)	35.2 µM (inactive)	17.9 µM (inactive)	10.7 µM (inactive)	17.1 µM (inactive)
Clc1ccc(OCc2nnc3sc(SSc4nn5c(COc6ccc(Cl)cc6)nnc5s4)nn23)cc1	> 100 µM (inactive)	> 100 µM (inactive)	> 100 µM (inactive)		74.3 µM (inactive)	> 100 µM (inactive)	> 100 µM (inactive)	92.9 µM (inactive)	> 100 µM (inactive)		> 100 µM (inactive)	> 100 µM (inactive)		> 100 µM (inactive)	60.8 µM (inactive)	> 100 µM (inactive)	> 100 µM (inactive)	49.5 µM (inactive)	
